Source: ChEMBL document CHEMBL5252625, “Development of sulfonium tethered peptides conjugated with HDAC inhibitor to improve selective toxicity for cancer cells” (Bioorg Med Chem, 2023)
Active and inactive are the calls of the source. The rule behind the calls is not given here. Non-standard residues stand in square brackets, D forms with d. Residues, ends and D or L forms follow the SMILES beside them. *: point of attachment. Ahx = NCCCCCC(=O)O; NHOH = ON*

Columns and labels:
[1] = test system: Huh-7; assay: Induction of cell cycle arrest in human Huh-7 cells assessed as accumulation of cells at G2 phase at 20 uM incubated for 24 hrs by FACscan flow cytometer analysis (reference value: 25.74%); format: functional
[2] = test system: Huh-7; assay: Anticancer activity in human Huh-7 cells assessed as change in BMP2 gene expression by KEGG analysis; format: functional, cell-based
[3] = target: T1, Histone deacetylase (Homo sapiens) (UniProt Q13547+O15379+Q9UBN7+Q92769+Q9UQL6+Q8WUI4+Q9BY41+Q96DB2+P56524+Q9UKV0+Q969S8); assay: Inhibition of HDAC in human Huh-7 cells assessed as increase in histone H3 acetylation at 20 to 40 uM incubated for 24 hrs by Western blot analysis; format: cell-based; conditions: dose 20-40 µM
[4] = test system: Huh-7; assay: Induction of apoptosis in human Huh-7 cells assessed as necrotic cells at 20 uM incubated for 24 hrs by FITC Annexin V/propidium iodide staining based flow cytometry analysis (reference value: 0.401%); format: functional
[5] = test system: Huh-7; assay: Induction of apoptosis in human Huh-7 cells assessed as early apoptotic cells at 20 uM incubated for 24 hrs by FITC Annexin V/propidium iodide staining based flow cytometry analysis (reference value: 1.85%); format: functional
[6] = test system: Huh-7; assay: Induction of cell cycle arrest in human Huh-7 cells assessed as accumulation of cells at S phase at 20 uM incubated for 24 hrs by FACscan flow cytometer analysis (reference value: 41.7%); format: functional
[7] = test system: Huh-7; assay: Anticancer activity in human Huh-7 cells assessed as change in JAK2 gene expression by KEGG analysis; format: functional, cell-based
[8] = test system: Huh-7; assay: Anticancer activity in human Huh-7 cells assessed as change in WNT6 gene expression by KEGG analysis; format: functional, cell-based
[9] = test system: Huh-7; assay: Induction of apoptosis in human Huh-7 cells assessed as late apoptotic cells at 20 uM incubated for 24 hrs by FITC Annexin V/propidium iodide staining based flow cytometry analysis (reference value: 5.19%); format: functional
[10] = test system: Huh-7; assay: Anticancer activity in human Huh-7 cells assessed as change in TP53 gene expression by KEGG analysis; format: functional, cell-based
[11] = test system: Huh-7; assay: Induction of cell cycle arrest in human Huh-7 cells assessed as accumulation of cells at G1 phase at 20 uM incubated for 24 hrs by FACscan flow cytometer analysis (reference value: 39.68%); format: functional
[12] = target: T1, Histone deacetylase (Homo sapiens); assay: Inhibition of HDAC in human HepG2 cells assessed as increase in histone H3 acetylation at 20 to 40 uM incubated for 24 hrs by Western blot analysis; format: cell-based; conditions: dose 20-40 µM
[13] = test system: Huh-7; assay: Anticancer activity in human Huh-7 cells assessed as change in BCL2L11gene expression by KEGG analysis; format: functional, cell-based
[14] = test system: Huh-7; assay: Anticancer activity in human Huh-7 cells assessed as change in BMP4 gene expression by KEGG analysis; format: functional, cell-based
[15] = test system: Huh-7; assay: Antiproliferative activity against human Huh-7 cells incubated for 48 hrs by CCK8 method; format: functional, cell-based; conditions: Huh-7, 48 h
[16] = test system: Huh-7; assay: Induction of cell cycle arrest in human Huh-7 cells assessed as accumulation of cells at sub G1 phase at 20 uM incubated for 24 hrs by FACscan flow cytometer analysis relative to control; format: functional
[17] = test system: Huh-7; assay: Induction of apoptosis in human Huh-7 cells assessed as viable cells at 20 uM incubated for 24 hrs by FITC Annexin V/propidium iodide staining based flow cytometry analysis (reference value: 92.6%); format: functional; conditions: read-out: Activity
[18] = target: Histone deacetylase; assay: Inhibition of HDAC in human HeLa cell extracts using Boc-Lys(Ac)-AM as substrate by fluorescence based analysis
[19] = Stability in mouse serum measured upto 24 hrs by LC/MS analysis; format: ADME, cell-free
[20] = test system: HT-29; assay: Antiproliferative activity against human HT-29 cells incubated for 48 hrs by CCK8 method; format: functional, cell-based; conditions: HT-29, 48 h
[21] = test system: HepG2; assay: Antiproliferative activity against human HepG2 cells incubated for 48 hrs by CCK8 method; format: functional, cell-based; conditions: HepG2, 48 h
[22] = test system: Huh-7; assay: Induction of cell cycle arrest in human Huh-7 cells assessed as accumulation of cells at S phase at 2.5 uM incubated for 24 hrs by FACscan flow cytometer analysis (reference value: 41.7%); format: functional
[23] = test system: Huh-7; assay: Induction of cell cycle arrest in human Huh-7 cells assessed as accumulation of cells at sub G1 phase at 2.5 uM incubated for 24 hrs by FACscan flow cytometer analysis relative to control; format: functional
[24] = test system: Huh-7; assay: Induction of apoptosis in human Huh-7 cells assessed as late apoptotic cells at 5 uM incubated for 24 hrs by FITC Annexin V/propidium iodide staining based flow cytometry analysis (reference value: 5.19%); format: functional
[25] = test system: Huh-7; assay: Induction of apoptosis in human Huh-7 cells assessed as viable cells at 5 uM incubated for 24 hrs by FITC Annexin V/propidium iodide staining based flow cytometry analysis (reference value: 92.6%); format: functional; conditions: read-out: Activity
[26] = test system: Huh-7; assay: Induction of apoptosis in human Huh-7 cells assessed as early apoptotic cells at 5 uM incubated for 24 hrs by FITC Annexin V/propidium iodide staining based flow cytometry analysis (reference value: 1.85%); format: functional
[27] = test system: Huh-7; assay: Induction of cell cycle arrest in human Huh-7 cells assessed as accumulation of cells at G2 phase at 2.5 uM incubated for 24 hrs by FACscan flow cytometer analysis (reference value: 25.74%); format: functional
[28] = test system: Huh-7; assay: Induction of apoptosis in human Huh-7 cells assessed as necrotic cells at 5 uM incubated for 24 hrs by FITC Annexin V/propidium iodide staining based flow cytometry analysis (reference value: 0.401%); format: functional
[29] = test system: Huh-7; assay: Induction of cell cycle arrest in human Huh-7 cells assessed as accumulation of cells at G1 phase at 2.5 uM incubated for 24 hrs by FACscan flow cytometer analysis (reference value: 39.68%); format: functional
[30] = Hemolytic activity in mouse erythrocytes assessed as hemolysis at 80 uM incubated for 1.5 hrs by microplate reader assay; format: toxicity, cell-based; conditions: erythrocyte
[31] = target: T1, Histone deacetylase (Homo sapiens); assay: Inhibition of HDAC in human HepG2 cells assessed as increase in histone H3 acetylation at 20 uM incubated for 24 hrs by Western blot analysis; format: cell-based
[32] = test system: Huh-7; assay: Induction of cell cycle arrest in human Huh-7 cells assessed as accumulation of cells at G2 phase at 10 uM incubated for 24 hrs by FACscan flow cytometer analysis (reference value: 25.74%); format: functional
[33] = test system: Huh-7; assay: Induction of cell cycle arrest in human Huh-7 cells assessed as accumulation of cells at S phase at 10 uM incubated for 24 hrs by FACscan flow cytometer analysis (reference value: 41.7%); format: functional
[34] = test system: Huh-7; assay: Induction of apoptosis in human Huh-7 cells assessed as necrotic cells at 10 uM incubated for 24 hrs by FITC Annexin V/propidium iodide staining based flow cytometry analysis (reference value: 0.401%); format: functional
[35] = target: T1, Histone deacetylase (Homo sapiens); assay: Inhibition of HDAC in human Huh-7 cells assessed as increase in histone H3 acetylation at 20 uM incubated for 24 hrs by Western blot analysis; format: cell-based
[36] = test system: Huh-7; assay: Induction of cell cycle arrest in human Huh-7 cells assessed as accumulation of cells at sub G1 phase at 10 uM incubated for 24 hrs by FACscan flow cytometer analysis relative to control; format: functional
[37] = test system: Huh-7; assay: Induction of apoptosis in human Huh-7 cells assessed as late apoptotic cells at 10 uM incubated for 24 hrs by FITC Annexin V/propidium iodide staining based flow cytometry analysis (reference value: 5.19%); format: functional
[38] = test system: Huh-7; assay: Induction of apoptosis in human Huh-7 cells assessed as viable cells at 10 uM incubated for 24 hrs by FITC Annexin V/propidium iodide staining based flow cytometry analysis (reference value: 92.6%); format: functional; conditions: read-out: Activity
[39] = test system: Huh-7; assay: Induction of apoptosis in human Huh-7 cells assessed as early apoptotic cells at 10 uM incubated for 24 hrs by FITC Annexin V/propidium iodide staining based flow cytometry analysis (reference value: 1.85%); format: functional
[40] = test system: Huh-7; assay: Induction of cell cycle arrest in human Huh-7 cells assessed as accumulation of cells at G1 phase at 10 uM incubated for 24 hrs by FACscan flow cytometer analysis (reference value: 39.68%); format: functional
[41] = Cytotoxicity activity against human HEK293T cells incubated for 48 hrs by CCK8 method; format: toxicity, cell-based, HEK-293T
[42] = Drug localization in human Huh-7 cells incubated for 24 hrs by DAPI staining based microscopy analysis; format: ADME, cell-based; conditions: huh-7, 24 h
[43] = Drug uptake in human Huh-7 cells assessed as cell penetration incubated for 24 hrs by flow cytometry analysis; format: ADME, cell-based; conditions: huh-7, 24 h

Row | Structure (SMILES) | IC50 [15] [µM] | IC50 [18] [µM] | IC50 [20] [µM] | IC50 [21] [µM] | inhibition [31] | Activity [32] [%] | Activity [33] [%] | Activity [34] [%] | inhibition [35] | Activity [36] [%] | Activity [37] [%] | viability at 10 µM [38] [%] | Activity [39] [%] | Activity [40] [%] | also measured
1 | CC(=O)N[C@@H](CCCNC(=N)N)C(=O)N[C@@H](CC(C)C)C(=O)N[C@@H](CC(C)C)C(=O)N[C@@H](CCCNC(=N)N)C(=O)N[C@@H](CC(C)C)C(=O)N[C@H]1CC[S+](C)Cc2cccc(c2)C[S+](C)CC[C@@H](C(=O)N[C@@H](CC(C)C)C(=O)N[C@@H](CC(C)C)C(=O)N[C@@H](CCCNC(=N)N)C(=O)N[C@@H](CC(C)C)C(=O)NCCCCCC(=O)NO)NC(=O)[C@H](CCCNC(=N)N)NC(=O)[C@H](CC(C)C)NC(=O)[C@H](CCCNC(=N)N)NC1=O (some centres undefined) | 43.7 | 0.31 | 54.6 | 52.2 |  |  |  |  |  |  |  |  |  |  | Activity [1]: 17.34%; Activity [2]: Active; inhibition [3]: Active; Activity [4]: 3.89%; Activity [5]: 4.97%; Activity [6]: 33.25%; Activity [7]: Active; Activity [8]: Active; Activity [9]: 18.2%; Activity [10]: Active; Activity [11]: 51.86%; inhibition [12]: Active; Activity [13]: Active; Activity [14]: Active; Activity [16]: 2.98%; viability at 20 µM [17]: 73%; Stability [19]: Stable
2 | CC(=O)N[C@@H](CCCNC(=N)N)C(=O)N[C@@H](CC(C)C)C(=O)N[C@@H](CC(C)C)C(=O)N[C@@H](CCCNC(=N)N)C(=O)N[C@@H](CC(C)C)C(=O)N[C@H]1CC[S+](C)Cc2cccc(c2)C[S+](C)CC[C@@H](C(=O)N[C@@H](CC(C)C)C(=O)N[C@@H](CC(C)C)C(=O)N[C@@H](CCCNC(=N)N)C(=O)N[C@@H](CC(C)C)C(=O)O)NC(=O)[C@H](CCCNC(=N)N)NC(=O)[C@H](CC(C)C)NC(=O)[C@H](CCCNC(=N)N)NC1=O (some centres undefined) |  | > 100 |  |  |  |  |  |  |  |  |  |  |  |  | 
3 | O=C(CCCCCCC(=O)Nc1ccccc1)NO [VORINOSTAT] |  |  |  |  |  |  |  |  |  |  |  |  |  |  | Activity [22]: 25.97%; Activity [23]: 7.16%; Activity [24]: 37%; viability at 5 µM [25]: 47.2%; Activity [26]: 6.4%; Activity [27]: 18.46%; Activity [28]: 9.35%; Activity [29]: 46.95%
4 | CSCC[C@H](NC(=O)[C@H](CCCNC(=N)N)NC(=O)[C@H](CC(C)C)NC(=O)[C@H](CCCNC(=N)N)NC(=O)[C@H](CCSC)NC(=O)[C@H](CC(C)C)NC(=O)[C@H](CCCNC(=N)N)NC(=O)[C@H](CC(C)C)NC(=O)[C@H](CC(C)C)NC(=O)[C@H](CCCNC(=N)N)NC(C)=O)C(=O)N[C@@H](CC(C)C)C(=O)N[C@@H](CC(C)C)C(=O)N[C@@H](CCCNC(=N)N)C(=O)N[C@@H](CC(C)C)C(N)=O (Ac-RLLRLMRLRMLLRL-NH2) |  | > 100 |  |  | inactive | 6.43 | 36.8 | 5.39 | inactive | 6.9 | 21.1 | 69.6 | 3.93 | 58.07 | Activity [30]: Toxic
5 | CSCC[C@H](NC(=O)[C@H](CCCNC(=N)N)NC(=O)[C@H](CC(C)C)NC(=O)[C@H](CCCNC(=N)N)NC(=O)[C@H](CCSC)NC(=O)[C@H](CC(C)C)NC(=O)[C@H](CCCNC(=N)N)NC(=O)[C@H](CC(C)C)NC(=O)[C@H](CC(C)C)NC(=O)[C@H](CCCNC(=N)N)NC(C)=O)C(=O)N[C@@H](CC(C)C)C(=O)N[C@@H](CC(C)C)C(=O)N[C@@H](CCCNC(=N)N)C(=O)N[C@@H](CC(C)C)C(=O)NCCCCCC(=O)NO (Ac-RLLRLMRLRMLLRL[Ahx]-{NHOH}) | 28.1 | 0.446 | 42.6 | 34 | Active | 9.53 | 37.76 | 3.03 | Active | 10.82 | 16.5 | 75 | 5.46 | 47.63 | IC50 at 48 h [41]: 39.8 µM; Drug uptake [42]: Active; Drug uptake [43]: Active
